Test results taken from US6939888B2, “1-H-3-arylpirrolidine-2,4-dione derivatives” (Bayer Aktiengesellschaft, priority 1994, dated 2005).

What was measured:
[1] = system: greenhouse red spider mite (Tetranychus urticae); test: Tetranychus test (OP resistant), sprayed bean plants; type: in vivo; conditions: after 7 days; concentration of active compound 0.00016%; bean plants (Phaseolus vulgaris) sprayed, all development stages
Method: Tetranychus Test (OP Resistant)
To produce a suitable preparation of active compound, 1 part by weight of active compound is mixed with the stated amount of solvent and the stated amount of emulsifier, and the concentrate is diluted with emulsifier-containing water to the desired concentration.
Bean plants (Phaseolus vulgaris) which are severely infested with all development stages of the greenhouse red spider mite (Tetranychus urticae) are sprayed with a preparation of active compound of the desired concentration.
After the specified periods of time, the destruction in % is determined. 100% means that all the spider mites have been killed; 0% means that none of the spider mites have been killed.

[2] = system: caterpillars of the diamond-back moth (Plutella maculipennis); test: Plutella test (cabbage leaf dip); type: in vivo; conditions: after 7 days; concentration of active compound 0.001%; cabbage leaves (Brassica olearacea) dipped
Method: Plutella Test [table] To produce a suitable preparation of active compound, 1 part by weight of active compound is mixed with the stated amount of solvent and the stated amount of emulsifier, and the concentrate is diluted with water to the desired concentration. Cabbage leaves (Brassica olearacea) are treated by being dipped into the preparation of active compound of the desired concentration and are infested with caterpillars of the diamond-back moth (Plutella maculipennis) while the leaves are still moist. After the specified periods of time, the destruction in % is determined. 100% means that all the caterpillars have been killed; 0% means that none of the caterpillars have been killed.

Row | SMILES | destruction rate [1] | destruction rate [2] [%]
1 | CCOC(=O)OC1=C(c2ccc(Cl)cc2Cl)C(=O)NC1(C)C(C)C (stereo not drawn) [(E)] | no destruction | 
2 | CC(C)C1(C)NC(=O)C(c2ccc(Cl)cc2Cl)=C1OC(=O)C(C)(C)C (stereo not drawn) [(D)] | no destruction | 
3 | CC(=O)OC1=C(c2c(C)cc(C)cc2C)C(=O)NC12CCCCC2 [(B)] |  | 10
